Values of other authors as cited in the PKSmart pharmacokinetics tables (Seal et al. 2025).

Assay: Lombardo, Berellini, Obach 2018, Drug Metab Dispos 46:1466, doi 10.1124/dmd.118.082966
Conditions: human; for clearance / MRT / Vd / half-life: in vivo, iv; for fraction unbound: plasma

Compound	clearance [mL/min/kg]	MRT [h]	Vd [L/kg]	half-life [h]	fraction unbound
NCCCCC(NC(CCc1ccccc1)C(=O)O)C(=O)N1CCCC1C(=O)O (stereo not given)	1.2	–	–	–	–
CC(C)n1c(/C=C/[C@H](O)C[C@H](O)CC(=O)O)c(-c2ccc(F)cc2)c2ccccc21	–	0.44	0.42	0.7	–
Cc1ccccc1N1C(=O)c2cc(S(N)(=O)=O)c(Cl)cc2NC1C (stereo not given)	1.4	19	1.6	20	–
COc1c(OCCCN2CCOCC2)ccc2c1N=C(NC(=O)c1cnc(N)nc1)N1CCN=C21	6.42	26.8	10.3	25.2	–
C/C=C(/C)C(=O)O[C@H]1[C@H](OC(C)=O)[C@]2(CO)[C@H](O)C[C@]3(C)C(=CC[C@@H]4[C@@]5(C)CC[C@H](O[C@@H]6OC(C(=O)O)[C@@H](O[C@@H]7O[C@H](CO)[C@@H](O)[C@H](O)[C@H]7O)[C@H](O)[C@H]6O[C@@H]6O[C@H](CO)[C@@H](O)[C@H](O)[C@H]6O)[C@](C)(CO)[C@@H]5CC[C@]43C)[C@@H]2CC1(C)C (stereo not given in full)	2.55	1.5	0.23	1.8	–
Clc1ccc2nsnc2c1NC1=NCCN1	11	3.6	2.4	2.4	–
COc1cccc2c1C(=O)c1c(O)c3c(c(O)c1C2=O)C[C@@](O)(C(=O)CO)C[C@@H]3O[C@@H]1C[C@H](N)[C@H](O[C@@H]2CCCCO2)[C@H](C)O1	57.7	12.5	43.2	11.1	–
CC(C)(C)NCC(O)COc1cccc2c1CC(O)C(O)C2 (stereo not given)	2.9	11	1.9	9.2	0.14
CCc1c2c(nc3ccc(OC(=O)CCC(=O)Oc4c(C)c(C)c5c(c4C)CC[C@@](C)(CCC[C@H](C)CCC[C@H](C)CCCC(C)C)O5)cc13)-c1cc3c(c(=O)n1C2)COC(=O)[C@]3(O)CC	0.81	3.34	0.15	3.77	–
C[C@@H](O)C1C(=O)N2C(C(=O)O)=C(SCCNC=N)C[C@H]12 (stereo not given in full)	3	1.3	–	0.95	–
Cc1cc2c(OCC(O)CNC(C)C)cccc2[nH]1 (stereo not given)	5.83	6.21	2.17	4.61	0.51
COc1c(-c2ccc3cc(NS(C)(=O)=O)ccc3c2)cc(-n2ccc(=O)[nH]c2=O)cc1C(C)(C)C	–	–	2.13	5.7	0.005
C[N+]1(CC2CC2)[C@@H]2C[C@@H](OC(=O)C(CO)c3ccccc3)C[C@H]1[C@@H]1O[C@@H]12 (stereo not given in full)	25	0.74	1.12	0.83	–
C#C[C@]1(O)CC[C@H]2[C@@H]3CCC4=Cc5oncc5C[C@]4(C)[C@H]3CC[C@@]21C	15.7	5.49	5.18	2.31	–
CN(C)CC/C=C1/c2ccccc2Sc2ccc(Cl)cc21	11.5	20.7	13.7	25.8	–
C[C@H]1CCc2c(N3CCC(O)CC3)c(F)cc3c(=O)c(C(=O)O)cn1c23	0.54	7.87	0.25	6.04	–
Nc1c(CC(=O)O)cccc1C(=O)c1ccc(Br)cc1	1.3	1.5	0.11	2.6	0.0011
CNCC[C@H](Oc1cccc2ccccc12)c1cccs1	8.57	–	–	12	0.04
CC(=O)OCC1=C(C(=O)O)N2C(=O)C(NC(=O)CC#N)[C@H]2SC1 (stereo not given in full)	3.69	2.21	0.49	2.02	–
Cc1ncc([N+](=O)[O-])n1CC(O)CN1CCOCC1 (stereo not given)	1.6	7.9	0.75	6.2	–
C[C@@H]1C=C2CC(=O)CCC2[C@H]2CC[C@]3(C)[C@@H](O)CC[C@H]3[C@H]12 (stereo not given in full)	20	0.67	0.8	0.65	–
CCCc1cc(=O)[nH]c(=S)[nH]1	3.1	1.8	0.34	1.3	0.18
Cc1onc(-c2c(F)cccc2Cl)c1C(=O)NC1C(=O)N2C(C(=O)O)C(C)(C)S[C@H]12 (stereo not given in full)	2.4	1.3	0.19	1.4	0.043

Compound	clearance [mL/min/kg]	MRT [h]	Vd [L/kg]	half-life [h]	fraction unbound
C[C@@H]1[C@H](O)[C@@H](C)C=CC=CC=CC=CC=CC=CC=C[C@H](O[C@H]2O[C@H](C)[C@@H](O)[C@H](N)[C@@H]2O)C[C@@H]2O[C@@](O)(C[C@@H](O)C[C@@H](O)[C@H](O)CC[C@@H](O)C[C@@H](O)CC(=O)O[C@H]1C)C[C@H](O)C2C(=O)O (stereo not given in full)	0.17	61	0.62	40	0.03
CC(C)C[C@H](NC(=O)CNC(=O)c1cc(Cl)ccc1Cl)B(O)O	0.5	119	3.61	97	0.01
C[C@H]1[C@H](C)CC[C@]2(C(=O)O)CC[C@@]3(C)C(=CC[C@@H]4[C@@]5(C)CC[C@H](O)C(C)(C)[C@@H]5CC[C@]43C)[C@H]12	3.87	2.34	–	4.8	–
O=C(/C=C/c1ccc(O)c(O)c1)O[C@@H]1C[C@](O)(C(=O)O)C[C@@H](OC(=O)/C=C/c2ccc(O)c(O)c2)[C@H]1O	75.8	1.05	4.82	3.17	–
CC(C)(C(=O)O)c1ccc(C(=O)CCCN2CCC(OC(c3ccccc3)c3ccccc3)CC2)cc1	0.4	16.7	0.41	9.8	0.05
CCCc1c(OCCCS(=O)(=O)c2ccc(C(=O)CCC(=O)O)cc2)ccc(C(C)=O)c1O	17.4	–	–	0.04	–
COc1cc([C@@H]2c3cc4c(cc3[C@@H](O[C@@H]3O[C@@H]5CO[C@@H](c6cccs6)O[C@H]5[C@H](O)[C@H]3O)[C@H]3COC(=O)C23)OCO4)cc(OC)c1O (stereo not given in full)	0.19	37	0.41	16	0.0044
CC(=O)NC(CS)C(=O)O (stereo not given)	3.1	3	0.55	5.5	0.17
CN1C(=O)CC[C@H]1c1cccnc1	0.89	21	1.1	17	–
CNC(=O)Oc1ccc2c(c1)[C@@]1(C)CCN(C)[C@@H]1N2C	72	0.9	3.9	1	0.64
NS(=O)(=O)OC[C@@H]1C[C@@H](n2ccc3c(N[C@H]4CCc5ccccc54)ncnc32)C[C@@H]1O	8.1	6.21	3.02	5.62	–
CN(C)C/C=C(\c1ccc(Br)cc1)c1cccnc1	13.8	8.22	6.8	6.26	0.086
Cc1cccc(C)c1OCC(C)N (stereo not given)	8.3	12	5.9	9.9	0.36
Nc1nc(N/N=C/C2CCCCC2)nc2c1ncn2[C@@H]1O[C@H](CO)[C@@H](O)[C@H]1O	35.8	0.19	0.4	0.21	–
N=C(N)c1ccc(CNC(=O)C2CCN2C(=O)C(NCC(=O)O)C2CCCCC2)cc1 (stereo not given)	1.9	2	0.23	1.6	–
CC(C)CC1C(=O)N2CCC[C@H]2[C@]2(O)O[C@@](C)(NC(=O)C3C[C@@H]4c5cccc6[nH]cc(c56)C[C@H]4N(C)C3)C(=O)N12 (stereo not given in full)	12.8	5.01	4.02	8.84	–
CN(C)Cc1nnc2n1-c1ccc(Cl)cc1C(c1ccccc1)=NC2	6.2	2.6	0.98	2.1	–
O=c1[nH]c2ccccc2n1CCCN1CCC(n2c(=O)[nH]c3cc(Cl)ccc32)CC1	9.5	6	3.4	–	–
CCC(C(N)=O)N1CCCC1=O (stereo not given)	0.9	11.2	0.6	8.23	0.9
Cn1cncc1[C@@](N)(c1ccc(Cl)cc1)c1ccc2c(c1)c(-c1cccc(Cl)c1)cc(=O)n2C	5.03	3.07	0.93	2.52	0.006
CO[C@]1(NC(=O)CSC(F)F)C(=O)N2C(C(=O)O)=C(CSc3nnnn3CCO)CO[C@@H]21	–	0.77	0.19	0.6	0.64
CCC1(c2cnc[nH]2)Cc2ccccc2C1	19.6	2.3	2.7	1.7	–
CCN1CCC[C@@H]1CNC(=O)c1cc(S(N)(=O)=O)ccc1OC	1.9	8.01	0.94	6.5	–

Compound	clearance [mL/min/kg]	MRT [h]	Vd [L/kg]	half-life [h]	fraction unbound
CC(=O)O[C@H]1C[C@]2(O)[C@H]3CC[C@H]4C[C@H](O[C@H]5C[C@@H](O)[C@@H](O[C@H]6C[C@@H](O)[C@@H](O[C@H]7C[C@@H](O)[C@@H](O)[C@H](C)O7)[C@H](C)O6)[C@H](C)O5)CC[C@@]4(C)[C@H]3CC[C@]2(C)[C@H]1C1=CC(=O)OC1	8.7	72.3	0.78	51.6	0.07
Cc1cc(=O)n(-c2ccccc2)[nH]1	1.42	2.65	0.23	2.36	0.89
COc1cccc2c1C(=N)c1c(O)c3c(c(O)c1C2=O)C[C@@](O)(C(=O)CO)C[C@@H]3O[C@H]1C[C@H](N)[C@H](O)[C@H](C)O1	15	17.2	15.4	13.8	–
C=C1C[C@@H]2CC[C@@]34C[C@H]5O[C@H]6[C@@H](O3)[C@H]3O[C@H](CC[C@@H]3O[C@H]6[C@H]5O4)CC(=O)O[C@@H]3[C@@H](OC)[C@@H](C[C@H](O)CN)O[C@H]3C[C@H]3O[C@@H](CC[C@@H]1O2)C[C@@H](C)C3=C	0.75	32.5	1.46	37.8	0.43
CN(C)C(=N)NC(=N)N	7.4	1.4	0.64	1.7	–
CC1=C(CO)C2=C(C)C3(CC3)[C@@](C)(O)C(=O)C2=C1	140	0.4	3.1	0.3	–
CN(C)CCCO[C@@H]1[C@H]2OC(C)(C)O[C@H]2O[C@@H]1[C@H](O)CO	3.48	5	1.04	4.07	0.97
CCN[C@@H]1C[C@H](N)[C@@H](O[C@H]2OC(CN)=CC[C@H]2N)[C@H](O)[C@H]1O[C@H]1OC[C@](C)(O)[C@H](NC)[C@H]1O	0.55	2.2	0.073	3.2	1
CS(=O)(=O)c1ccc(C(=O)Nc2ccc(Cl)c(-c3ccccn3)c2)c(Cl)c1	0.01	341	–	245	–
O=C(O)C(Cl)Cl	5.3	0.6	0.19	0.65	–
N=C(N)N/N=C1\CCc2c(C(=N)N)cccc21	3.2	104	20	65.4	–
O=C(O)CCCC[C@H]1CCSS1	13.4	0.13	0.11	0.21	–
O=C(CCCN1CC=C(n2c(=O)[nH]c3ccccc32)CC1)c1ccc(F)cc1	8.92	2.73	1.41	1.9	–
CCCCCCCC/C=C/CCCCCCCC(=O)OC[C@H]1O[C@@H](n2ccc(N)nc2=O)[C@@H](O)[C@@H]1O	4.53	0.51	0.14	0.36	–
O=c1ccc2ncc(=O)n3c2n1C[C@H]3CN1CCC(NCc2cc3c(cn2)OCCC3)CC1	9.23	4.86	2.7	12.6	–
c1cc2c(c(N3CCNCC3)c1)OCCO2	8	10.5	3.6	8.2	–
COc1cc([S+](C)O)ccc1-c1nc2cnccc2[n-]1 (stereo not given)	20.7	1.3	1.67	1.2	0.48
CCOCCO[C@@H]1CC[C@@H](C[C@@H](C)[C@@H]2CC(=O)C(C)=CC(C)[C@@H](O)C(OC)C(=O)C(C)C[C@H](C)/C=C/C=C/C=C(\C)[C@@H](OC)C[C@@H]3CC[C@@H](C)[C@@](O)(O3)C(=O)C(=O)N3CCCCC3C(=O)O2)C[C@H]1OC (stereo not given in full)	12.2	60.9	44.5	93.9	–
CCN(CC)C(=O)[C@]1(c2ccccc2)C[C@@H]1CN	8.17	8.17	4.51	6.48	–
CCCNC(C)C(=O)Nc1ccccc1C (stereo not given)	29	2.2	3.7	1.8	0.72
CC(CN1c2ccccc2Sc2ccccc21)N(C)C (stereo not given)	–	–	–	–	0.09
